Measured values taken from patent US20070254861A1, “Methods for the prevention and/or treatment of peripheral arterial disease” (Astellas Pharma Inc., priority 2006, published 2007).
Like-named read-outs stand apart in the source and are kept apart here. Numbered stars: 1 amine (or outer) side, 2 acyl side, 3 side chain; on linkers, the order of the positions; unused ones are H or OH. Bridge positions count the residues as written; N and C are the ends. Square brackets hold non-standard residues; d marks the D form. Peptide text beside a SMILES is read from it. Leu(3R-O(AcLeu(3R-OH))) = CC(=O)N[C@H](C(=O)O[C@H](C(C)C)[C@H](N)C(=O)O)[C@H](O)C(C)C; X1 = CO[C@H](C)C(C(=O)[*:2])N(C)[*:1]; dPhLac = O=C(O)[C@H](O)Cc1ccccc1; NMeA = CN[C@@H](C)C(=O)O; NMeDha = C=C(NC)C(=O)O

How the values were obtained:
[1] = tested on: lauric acid-induced peripheral arterial disease model; assay: Lesion progression in rat peripheral arterial disease model induced by lauric acid; format: in vivo
Description: A rat peripheral arterial disease model was produced by using a lauric acid injection method modified from that of Ashida et al. (Thrombosis research, 18, 55, 1980). Six to 24 animals were used in each group of this experiment. After being fasted overnight, each rat was anesthetized with pentobarbital (60 mg/kg i.p.), and the left femoral artery was freed from the surrounding tissue. The femoral artery was cannulated with a polyethylene catheter for i.a. injection of the lauric acid and the test drug. For the i.v. infusion of PGE1, the jugular vein was cannulated with a polyethylene catheter. To induce peripheral arterial vascular injury, 0.33 ml/kg of lauric acid (7.5 mg/ml in distilled water) was injected into the distal side of the arterial. Compound (I) was administered in a single i.a. bolus injection 15 minutes after the lauric acid injection. PGE1 was administered either intravenously for 30 minutes at 1 μg/kg/minutes starting 5 minutes before the lauric acid injection or intra-arterially for 15 minutes at 0.2 μg/kg/minutes starting 5 minutes after the lauric acid injection. Clopidogrel was administered orally either at 3 and 30 mg/kg 4 hours before the lauric acid injection, or at 30 mg/kg 2 hours after the lauric acid injection. It was also administered orally once a day for 3 days after the lauric acid injection. The treated hindlimb was examined macroscopically on days 3 after the lauric acid injection. The progress of the lesion was assessed using the following 5-point graded scoring system: grade 0: normal appearance, grade 1: the affected region was limited to the nails, grade 2: the affected region was limited to the fingers, grade 3: either the fingers are beginning to fall off or lesions appear on the paw, grade 4: either the paw is beginning to fall off or lesions appear on the leg. The condition of each toe was assessed and scored, and the sum of the scores for the five toes was used as the lesion index. If a lesion developed on the sole of the foot, 5 more points were added.

[2] = tested on: dermal blood flow in rat hindlimbs; assay: Decreased dermal blood flow after lauric acid injection (laser Doppler); format: in vivo
Description: Three male SD rats (Japan CLEA) were used in each group of this experiment. A laser Doppler blood flow meter (Laser Doppler Perfusion Imager System, Lisca) was used to evaluate the perfusion in the left (ischemic) and right (non-ischemic) rat hindlimbs. Before and during scanning, animals were placed on a heating plate set at 37° C. to minimize variations in temperature. The femoral artery was cannulated with a polyethylene catheter for i.a. injection of the lauric acid and test drug. For i.v. PGE1 infusion, the jugular vein was cannulated with a polyethylene catheter. Either compound (I) (10 μg/kg) or vehicle was administered in an i.a. bolus injection 15 minutes after the lauric acid injection (0.33 ml/kg, 7.5 mg/ml in distilled water). The laser Doppler images were recorded just before and 10 minutes after the lauric acid injection, as well as 10 minutes after the compound (I) (or vehicle) injection. PGE1 was administered by i.v. infusion at a rate of 1 μg/kg/minutes for 30 minutes beginning 5 minutes before the lauric acid injection. The laser Doppler images were recorded just before and 5 minutes after the start of infusion (just before the lauric acid injection), and then again 10 minutes after the lauric acid injection. Either vehicle (0.5% methylcellulose solution) or clopidogrel (30 mg/kg) was orally administered 4 hours before the experiment. For the oral studies, the laser Doppler images were recorded just before and 10 minutes after the lauric acid injection.

isolated rat aorta = assay: Vasorelaxant effect on vasoconstriction in isolated rat aorta; format: cell-based; conditions: for IC50: Rattus norvegicus
Description: Four male SD rats (Japan CLEA) were used in each group of this experiment. Rats were anesthetized with pentobarbital (60 mg/kg i.p.) and euthanized via exsanguination. The aortas were isolated and all adjacent tissue was removed. Rings of aorta, approximately […] length, were suspended in 10-ml organ baths containing Krebs-Henseleit solution (henceforth referred to as Krebs) of the following composition (mM): NaCl, 112.0; KCl, 4.7; KH2PO4, 1.2; MgSO4, 1.2; CaCl2, 2.5; NaHCO3, 25.0; glucose, 11.0. The Krebs was maintained at 37±1° C. and aerated with a gas mixture of 95% O2:5% CO2 (pH 7.4). Experiments were conducted on aortic tissue of two types. For type 1, the endothelium was removed by gently rubbing the internal surface of the vessel. For type 2, care was taken to maintain the integrity of the endothelium. One ring was placed on a hook that was suspended from a force displacement transducer (SB-1T, Nihon Kohden, Tokyo, Japan), 1.0 g tension was applied, and changes in the force of contraction were isometrically measured. Following a 1-h equilibration period, the rings were pretreated with 1 μM phenylephrine. Compound (I) was dissolved in dimethyl sulfoxide (DMSO) and added to the baths (0.1% DMSO, v/v), after which a cumulative compound (I) (1-100 nM) concentration-response curve was constructed for each type of ring. Contractions were caused in aorta rings with endothelium using three different compounds: 10 μM serotonin (5-HT), 30 nM endothelin-1 (ET-1), and 60 mM KCl. The vasorelaxant effect of compound (I) on the contractions caused by each of these compounds was then compared. Various concentrations of compound (I) were added 30 minutes before treatment with each vasoconstrictor. For 5-HT and KCl, the concentration-inhibition rate was measured for each tissue. For ET-1, each tissue was used to measure the inhibition rate in response to a given concentration of compound (I).

[3] = tested on: ADP-induced platelet aggregation; assay: Ex vivo platelet aggregation inhibition after single administration in the rat femoral artery; conditions: 5 minutes after injection, n=4, mean±SEM
Description: Four male SD rats (Japan CLEA) were used in each group of this experiment. All animals were fasted overnight before the experiment. After being anesthetized with pentobarbital (60 mg/kg i.p.), vehicle (5% ethanol) or compound (I) was injected into either the left femoral artery or the right jugular vein via a catheter. The rats were anesthetized with pentobarbital (60 mg/kg i.p.) before blood sampling. Blood was collected from the vena cava in syringes containing 3.8% sodium citrate at the following time points: 5 minutes after an intra-arterial (i.a.) single bolus injection of compound (I) (1-10 μg/kg). Platelet-rich plasma was obtained by centrifuging the blood at 200×g for 5 minutes at ambient temperature. This residue was further centrifuged at 2,000×g for 10 minutes in order to obtain platelet-poor plasma. Platelet counts were measured with an automatic cell counter (MEK-6258, Nihon Kohden, Tokyo, Japan), and adjusted to 3×10^5/μl with platelet-poor plasma. Platelet aggregation in platelet-rich plasma was measured using an aggregometer (MCM Hema Tracer 212, MC Medical, Tokyo, Japan) to record the increase in light transmission detected through a stirred suspension maintained at 37° C. for 5 minutes. Platelet aggregation was induced in 90 μl of platelet-rich plasma (3×10^5/μl) by adding 10 μl of 50 μM ADP. The inhibitory rate was calculated by dividing the absorbance area for the mixture containing the test sample by the absorbance area obtained for the vehicle-treated group.

[4] = tested on: systemic blood pressure and heart rate; assay: Blood pressure and heart rate after single bolus injection in femoral artery of rats; format: in vivo, rat
Description: Five male SD rats (Japan CLEA) were used in each group of this experiment. The rats, which were fasted overnight, were anesthetized with urethane (1.4 g/kg i.p.) and then secured on an operating table. The left carotid artery was cannulated with polyethylene catheters in order to monitor systemic blood pressure and heart rate. The left femoral artery was likewise cannulated with polyethylene catheters for the injection of compound (I). Systemic blood pressure was measured with a pressure transducer (AP-200T, Nihon Kohden) and heart rate was measured with a tachometer (AT-600G, Nihon Kohden) that was triggered by the arterial pulse wave. Changes in these parameters were continuously monitored by a thermal recorder (WT-685G, Nihon Kohden). Compound (I) was administered in an i.a. bolus injection at the rate of 5 mL/kg. The dosage (10 to 100 μg/kg) was increased every 10 to 20 minutes. The inhibitory rate was calculated by dividing the heart rate and mean blood pressure levels obtained after the compound (I) injection by them obtained after the vehicle injection.

[5] = Pharmacokinetic studies using rats, i.v. bolus injection; format: in vivo; conditions: rat, iv, plasma, after i.v. bolus injection
Gq/11 = conditions: Journal of Biological Chemistry, 279, 47438, 2004; cited from earlier work
[6] = tested on: ADP-induced platelet aggregation; conditions: JP-2003-210190; Journal of Antibiotics, 56, 358, 2003; cited from earlier work

## CCCCC[C@H](O)/C=C/[C@H]1[C@H](O)CC(=O)[C@@H]1CCCCCCC(=O)O [PGE1, prostaglandin E1]
[1]; i.a. infusion at 0.2 μg/kg/minutes for 15 minutes starting 5 minutes after lauric acid
  Inhibition of lesion progression: significantly inhibited lesion progression
[1]; i.v. infusion at 1 μg/kg/minutes for 30 minutes starting 5 minutes before lauric acid
  Inhibition of lesion progression: significantly inhibited lesion progression
[2]; continuous i.v. infusion 1 μg/kg/minutes, after lauric acid injection
  Effect on lauric acid-induced reduction in dermal blood flow: no improvement in the blood flow
[2]; i.v. infusion 1 μg/kg/minutes, 5 minutes after the start of the infusion
  Dermal blood flow in both hindlimbs before lauric acid: marked increase in dermal blood flow

## COC(=O)[C@H](c1ccccc1Cl)N1CCc2sccc2C1 [clopidogrel, (+)-(S)-methyl 2-(2-chlorophenyl)-2-(6,7-dihydrothieno[3,2-c]pyridin-5(4H)-yl)acetate]
[1]; oral, administered 4 hours before the lauric acid injection
  Inhibition of lesion progression: efficacy of clopidogrel was detected
[1]; oral, administered after the lauric acid injection
  Inhibition of lesion progression: no effect was observed
[2]; 30 mg/kg oral 4 hours before the experiment
  Effect on lauric acid-induced reduction in dermal blood flow: improved the blood flow only slightly

## C=C1C(=O)N[C@@H](C)C(=O)N(C)[C@@H](C)C(=O)N[C@@H]([C@H](OC(=O)[C@@H](NC(C)=O)[C@H](O)C(C)C)C(C)C)C(=O)N(C)C([C@@H](C)OC)C(=O)O[C@H](C)[C@H](NC(C)=O)C(=O)O[C@H](Cc2ccccc2)C(=O)N1C (stereo partly drawn) [compound (I)] (Ac-T[dPhLac][NMeDha]A[NMeA][Leu(3R-O(AcLeu(3R-OH)))][X1]; ester 1-C)
Isolated rat aorta; 60 mM KCl, even at a concentration of 1 μM
  Effect on KCl-induced contractions: ineffective
Isolated rat aorta; contraction induced by 30 nM ET-1, aorta with endothelium, n=4, mean, read-out: IC50 of inhibition of vascular contraction
  IC50: 18 nM
Isolated rat aorta; contraction induced by 10 μM 5-HT, aorta with endothelium, n=4, mean±SEM, read-out: IC50 of inhibition of vascular contraction
  IC50: 8.6 ± 1 nM
Isolated rat aorta; span over the three vasoconstrictors, read-out: IC50 values for vasoconstrictions induced by phenylephrine, 5-HT and ET-1
  IC50: 8.6 to 18 nM
Isolated rat aorta; with endothelium, pre-contracted with 1 μM phenylephrine, n=4, mean±SEM, read-out: IC50 of relaxation of isolated rat aorta
  IC50: 16 ± 2.3 nM
Isolated rat aorta; without endothelium, pre-contracted with 1 μM phenylephrine, n=4, mean±SEM, read-out: IC50 of relaxation of isolated rat aorta
  IC50: 11 nM
[3]; 1 μg/kg i.a. bolus
  Inhibitory rate of ADP-induced platelet aggregation: −5.6±5.4%
[3]; 3 μg/kg i.a. bolus
  Inhibitory rate of ADP-induced platelet aggregation: 38±5.1%
[3]; 10 μg/kg i.a. bolus
  Inhibitory rate of ADP-induced platelet aggregation: 71±7.0%
[1]; single i.a. bolus 15 minutes after the lauric acid injection, day 3
  Dose inhibiting lesion progression with significance: ≥ 0.003 mg/kg
[2]; 10 μg/kg i.a. bolus 15 minutes after the lauric acid injection
  Effect on lauric acid-induced reduction in dermal blood flow: improved the lauric acid-induced reduction in dermal blood flow somewhat, but did not correct it completely
[4]; 30 μg/kg i.a. bolus
  Relative mean blood pressure reduction: 25±5.2%
[4]; 100 μg/kg i.a. bolus
  Relative mean blood pressure reduction: 50±2.1%
[4]; i.a. administration
  Hypotensive dose relative to dose with significant preventive effect (Example 4): 10 times
[4]; i.a. bolus, Example 6
  Significant hypotensive dose: 0.03 mg/kg
[4]; up to 100 μg/kg i.a.
  Change of the heart rate: no significant change
[5]
  half-life: 3.7 min
Gq/11
  Gq/11 inhibition: specific Gq/11 inhibitor
[6]
  Inhibition of ADP-induced platelet aggregation in human: inhibits ADP-induced platelet aggregation in human
